Laboratory results reported in patent publication US4311689A, “Method and container for production of diagnostic scanning” (priority 1978, dated 1982).
Structures can show the parent of a compound that is named as a salt.

Test: Bio-distribution in rats 2 hours post injection
Assay type: in vivo
Procedure: The complex was injected into rats which were sacrificed 2 hours post injection.

SMILES | activity excreted in the urine | activity excreted in the urine (in words) | liver retention / uptake | activity retained in the kidneys | other results
O=C(O)CN(CCN(CC(=O)O)CC(=O)O)CCN(CC(=O)O)CC(=O)O | greater than 95% |  |  |  | 
Sc1cccc2cccnc12 [8-mercapto-quinolinehydrochloride] |  | small amount | about 37% |  | blood labelling: small amount; muscle uptake: ~15%; small intestine uptake: ~20%
O=C(O)CC(O)(CC(=O)O)C(=O)O [citric acid] | over 70% |  |  | about 11% | concentration in any other organ: no significant concentration
O=C[C@H](O)[C@@H](O)[C@H](O)[C@H](O)CO [d-glucose] |  | the bulk of the injected activity | about 5% | ~29% | 
O=P(O)(O)CP(=O)(O)O [methylenediphosphonic acid] |  | most of the remainder |  |  | bone uptake: about 37%
